Article PMC7536072, “Molecular and functional characterization of somatostatin-type signalling in a deuterostome invertebrate” (Open Biology, 2020)
Entries after “also recorded” stand apart in the source; their conditions may differ. Where two headings read alike, the source gives them in different places. Bridges are numbered along the chain shown (N, C = ends). Where no end group is shown, it is not given here.

Key:
[1] = test system: cardiac stomach preparations from A. rubens; assay: in vitro relaxation of cardiac stomach preparations; parameters: species or system Asterias rubens; conditions: n = 6
Procedure: Synthetic ArSS2 ([…], with a disulfide bridge between the cysteine residues) was custom synthesized (Peptide Protein Research Ltd, Fareham, UK) to enable testing of its pharmacological effects on in vitro preparations of organs/muscles from A. rubens. ArSS2 was tested for its in vitro effects on the contractility of tube foot, apical muscle and cardiac stomach preparations from at least six different specimens of A. rubens. Individual tube foot preparations were dissected from starfish arms with their corresponding ampulla intact. Then cotton ligatures were tied around the ambulacral body wall and the tube foot disc and then the external epithelium of the tube foot was scraped off using a blunt scalpel blade to facilitate penetration of peptides when tested in vitro, as described previously. Apical muscle preparations were dissected from the aboral body wall with approximately 1 cm strips of apical muscle tied at each end with cotton ligatures. Cardiac stomach preparations were dissected as described previously and then were tied at the aboral side of the cardiac stomach and around the oesophagus with cotton ligatures. The dissected preparations were tied to a fixed metal hook orally and to a high-grade isotonic transducer (MLT0015; ADInstruments Ltd; Oxford, UK) aborally, suspended in a 20 ml aerated organ bath containing artificial seawater at approximately 11°C. The transducer was connected via a bridge amplifier (FE221 Bridge Amp, ADInstruments Ltd, Oxford, UK) to data acquisition hardware (PowerLab 2/36, ADInstruments Ltd, Oxford, UK). Data collected from PowerLab were visualized as traces and analysed using LabChart (v. 8.0.7) software installed on a laptop computer (Lenovo E540, Windows 7 Professional).
To examine the effects of ArSS2 on tube foot and cardiac stomach preparations, 10^−6 M acetylcholine (ACh) or artificial seawater (ASW) containing 30 mM added KCl was used to induce contraction of these preparations, respectively. Once a stable baseline contracted state was achieved, synthetic ArSS2 was added into the organ bath to sequentially achieve final concentrations in the range of 10^−10 to 10^−6 M. For these experiments, the contracting effect of 10^−6 M ACh or ASW containing 30 mM added KCl was defined as 100% and the relaxing effects of ArSS2 were then calculated as a percentage reversal of the 100% contracted state.
Experiments were performed where the effects of ArSS2, S2 and asterotocin (at 10^−7 and 10^−6 M) on cardiac stomach preparations (n = 6) were compared. For these experiments, the effect of 10^−7 or 10^−6 M S2 was defined as 100% and the effect of asterotocin or ArSS2 was calculated as a % of the effect of S2. To determine if there were significant differences in magnitude of the relaxing effects of the three peptides on cardiac stomach preparations, data were analysed statistically using a two-tailed Student's t-test in Prism 6.

[2] = test system: cardiac stomach of A. rubens; assay: in vivo cardiac stomach eversion after injection into the perivisceral coelom; parameters: species or system Asterias rubens; conditions: 10 µl 10^−3 M into perivisceral coelom, n = 10
Procedure: When starfish (A. rubens) feed, the cardiac stomach is relaxed and everted out of the mouth over the digestible soft tissues of prey (e.g. mussels). […] Therefore, because ArSS2 causes relaxation of cardiac stomach preparations in vitro, we investigated if ArSS2 also triggers cardiac stomach eversion when injected in vivo. Firstly, 15 medium-sized starfish were starved for one week to normalize their physiological status. A Hamilton […] 50 μl syringe (Sigma-Aldrich; Gillingham, UK) was used to inject 10 μl 1 mM ArSS2, or 10 μl 1 mM asterotocin (positive control) or 10 μl water (negative control) into the […] coelom of starfish. ArSS2 was tested on five individuals firstly and then the next day, asterotocin was tested on the same batch of five individuals. For another five individuals, asterotocin was tested first and then ArSS2 was tested on the following day. The remaining five individuals were injected with water as a control. Thus, both ArSS2 and asterotocin were tested on ten starfish. For each starfish, the test agent was injected via two sites in the dorsal body wall of the arms proximal to the junctions with the central disc region. Care was taken to inject test agents into the […] coelom and not into the cardiac stomach.

[3] = test system: tube foot preparations from A. rubens; conditions: ref [67]; cited from earlier work
[4] = test system: cardiac stomach preparations from A. rubens; conditions: cited from earlier work; for cardiac stomach relaxant activity: ref [64],[67]
From the text: Likewise, ArSS2 caused dose-dependent relaxation of cardiac stomach preparations at concentrations between ... || ArSS2 is widely expressed in the digestive system of A. rubens, including the peristomial membrane, cardiac stomach, pyloric stomach, pyloric duct, and pyloric caeca. In the cardiac stomach, ArSSP2 transcripts are detected in cells located in the mucosa layer and ArSS2-immunoreactivity is present in the adjacent basi-epithelial nerve plexus. Consistent with this expression of ArSS2 in the cardiac stomach, ArSS2 causes dose-dependent relaxation of cardiac stomach preparations.

[5] = test system: apical muscle preparations from A. rubens; conditions: ref [67]; cited from earlier work
[6] = test system: cardiac stomach of A. rubens; conditions: cited from earlier work
From the text: When starfish (A. rubens) feed, the cardiac stomach is relaxed and everted out of the mouth over the digestible soft tissues of prey (e.g. mussels). […] Therefore, because ArSS2 causes relaxation of cardiac stomach preparations in vitro, we investigated if ArSS2 also triggers cardiac stomach eversion when injected in vivo. Firstly, 15 medium-sized starfish were starved for one week to norm ... || Asterias rubens feeds by everting its cardiac stomach through a narrow oral opening (mouth) and over the digestible parts of its prey, and for this to be accomplished, the cardiac stomach must be in a relaxed state. Neuropeptides that cause cardiac stomach in vitro are therefore potential mediators of cardiac stomach eversion in vivo. […] Therefore, here we investigated if ArSS2 also triggers cardiac stomach ever ... || The in vitro relaxing effect of ArSS2 on the cardiac stomach of A. rubens is of interest from a physiological/behavioural perspective because relaxation of the cardiac stomach is required for the extraoral feeding behaviour of starfish where it is everted out of the mouth and over the digestible soft tissue of prey such as mussels.

ArSSR1 = assay: GFP-aequorin luminescence receptor activation assay, CHO-K1 cells, ArSSR1 + Gα16; assay type: cell-based, Asterias rubens; conditions: ArSSR1
ArSSR2 = assay: GFP-aequorin luminescence receptor activation assay, CHO-K1 cells, ArSSR2 + Gα16; assay type: cell-based, Asterias rubens; conditions: ArSSR2
ArSSR3 = assay: GFP-aequorin luminescence receptor activation assay, CHO-K1 cells, ArSSR3 + Gα16; assay type: cell-based, Asterias rubens; conditions: ArSSR3
ArSSR3, sequence (as listed by the source): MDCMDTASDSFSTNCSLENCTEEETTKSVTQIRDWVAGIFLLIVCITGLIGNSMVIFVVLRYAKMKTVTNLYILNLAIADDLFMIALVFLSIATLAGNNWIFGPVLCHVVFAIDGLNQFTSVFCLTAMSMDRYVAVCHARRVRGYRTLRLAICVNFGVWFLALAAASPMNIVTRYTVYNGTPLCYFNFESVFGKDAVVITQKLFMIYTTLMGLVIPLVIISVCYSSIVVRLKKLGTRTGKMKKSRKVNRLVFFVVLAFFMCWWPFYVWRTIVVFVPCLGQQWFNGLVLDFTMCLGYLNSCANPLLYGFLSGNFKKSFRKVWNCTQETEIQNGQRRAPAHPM

[7] = test system: CHO-K1 cells transfected with an empty pcDNA3.1(+) vector; assay: luminescence control assay, CHO-K1 cells transfected with empty vector; assay type: cell-based, Chinese hamster; conditions: 10^-12 to 10^-5 M (figure S12), 0.1 % Triton X-100 = 100%
Procedure: In order to characterize the candidate SS-type receptors, a G-protein-dependent receptor activation assay was employed. Chinese hamster ovary (CHO)-K1 cells stably overexpressing the calcium-sensitive bioluminescent reporter GFP-aequorin fusion protein (G5A) were used as a heterologous expression system. Plasmids containing A. rubens SS-type receptor cDNAs were co-transfected with the promiscuous human Gα16, which is widely used for receptor deorphanization assays. […] After 3 h incubation, a fixed volume of cells was injected sequentially into each well containing different concentrations of peptides using a FLUOstar Omega Plate Reader (BMG LABTECH, Ortenberg, Germany). Luminescence values were recorded over a 35 s period after injection. The total luminescence of each well over the 35 s period was calculated and normalized to the maximum value obtained in each experiment (100% activation) and to the value obtained with the vehicle media (0% activation). […] EC50 values were calculated from dose–response curves using Prism 6. The luminescence responses triggered by 10^−5 M ArSS1, 10^−5 M ArSS2 and vehicle media were analysed by one-way ANOVA using Bonferroni's multiple comparisons post hoc test in Prism 6. […]

[8] = injected in vivo, ref [66],[67]
[9] = 10^−5 M, vs BSA media (control) and, for ArSS2, vs ArSS1, one-way ANOVA, Bonferroni

Which “relaxing effect compared with S2” value ([1]; 10^−6 M, two-tailed Student's t-test p = 0.0255) does the source give for “CLVQDCPEG-NH2 (disulfide 1-6 (inferred)) [asterotocin, reference compound]” here?
Its value is “significantly larger than the effect S2”.

And the “relaxing effect compared with ArSS2” value ([1]; 10^−6 M, two-tailed Student's t-test p = 0.0483)?
Its value is “significantly larger”.

And the “magnitude of cardiac stomach relaxing action relative to S2” value ([1]; 10^−7 M, KCl-contracted, mean)?
The value was 3.5 times the effect of S2.

And the “relaxing effect compared with S2” value ([1]; 10^−7 M, two-tailed Student's t-test p = 0.0055)?
Its value is “significantly larger than the effect of S2”.

And the “relaxing effect compared with ArSS2” value ([1]; 10^−7 M, two-tailed Student's t-test p = 0.0250)?
Its value is “significantly larger”.

What about the “mean maximal eversion, area of everted cardiac stomach” value ([2]; 10 min recording) of the same substance?
The value was ~125 % of the area of the central disc region.

And the “incidence of cardiac stomach eversion” value [2]?
Its value is “all of the animals”.

What about the “time of mean maximal eversion after injection” value [2] of the same substance?
Its value is “approximately 9 min”.

What about the “relaxation of tube foot preparations” value [3] of the same substance?
The value was “caused relaxation of cardiac stomach and apical muscle preparations but not tube feet”.

What about the “cardiac stomach relaxant activity” value [4] of the same substance?
The value was “act as cardiac stomach relaxants”.

What about the “effectiveness as cardiac stomach relaxant compared with S2” value ([4]; ref [67]) of the same substance?
The value was “much more effective as a cardiac stomach relaxant than S2”.

And the “relaxation of cardiac stomach preparations” value ([4]; ref [67])?
Its value is “caused relaxation of cardiac stomach and apical muscle preparations but not tube feet”.

What about the “relaxation of apical muscle preparations” value [5] of the same substance?
The value was “caused relaxation of cardiac stomach and apical muscle preparations but not tube feet”.

And the cardiac stomach eversion ([6]; 100 µl 10^−3 M into perivisceral coelom, ref [67])?
The cardiac stomach eversion was “complete eversion of the cardiac stomach”.

What about the cardiac stomach eversion [6, 8] of the same substance?
The cardiac stomach eversion was “induce cardiac stomach eversion when injected in vivo”.

What about the “effectiveness and potency in triggering cardiac stomach eversion compared with S2” value ([6]; ref [67]) of the same substance?
The value was “much more effective and potent than S2”.

Which results are given for “KCIGRFQPFSMPC (disulfide 2-13 (inferred)) [ArSS1, 13-residue SS-type neuropeptide of Asterias rubens derived from ArSSP1 (…)]”?
luminescence compared with control (ArSSR1; [9]): not significantly different; triggering of luminescence (ArSSR1; 10^−21 to 10^−4 M): did not trigger luminescence; luminescence compared with control (ArSSR2; [9]): not significantly different; triggering of luminescence (ArSSR2; 10^−21 to 10^−4 M): did not trigger luminescence; luminescence compared with control (ArSSR3; [9]): not significantly different; triggering of luminescence (ArSSR3; 10^−21 to 10^−4 M): did not trigger luminescence; luminescence response in cells with empty vector [7]: do not trigger luminscence; also recorded: Neither ArSS1 nor ArSS2 elicited responses

For “SGPYSFNSGLTF-NH2 [S2, SALMFamide neuropeptide S2 (…-NH2)]”, which “magnitude of cardiac stomach relaxing action relative to asterotocin” value ([1]; 10^−6 M, KCl-contracted, mean) is on record?
Its value is “approximately 50 % of the effect of asterotocin”.

And the “cardiac stomach relaxant activity” value [4]?
Its value is “act as cardiac stomach relaxants”.

What about the “relaxation of tube foot and/or cardiac stomach preparations” value ([4]; tube foot and/or cardiac stomach, ref [64],[66]) of the same substance?
Its value is “cause relaxation of tube foot and/or cardiac stomach preparations”.

What about the cardiac stomach eversion [6, 8] of the same substance?
The cardiac stomach eversion was “induce cardiac stomach eversion when injected in vivo”.
